Laboratory results as given in PubChem BioAssay AID720699 (NMMLSC, 2013).

Assay: incubation effect on Rab7 inhibitor curves, late-stage follow-up, mechanism study, biochemical, Rab7 wildtype, bead flow cytometry, two incubation protocols (AID 720699)
Settings: Rab7 beads, Bodipy-FL-GTP binding

Compound | EC50 (protocol A) [nM] | EC50 (protocol B) [nM]
CC1(C)Cc2c(sc(NC(=S)NC(=O)c3cccc(N=[N+]=[N-])c3)c2C(=O)O)CO1 | 1260 | 1220
CC1(C)Cc2c(sc(NC(=S)NC(=O)c3ccc(N=[N+]=[N-])cc3)c2C(=O)O)CO1 | 219 | 172
